Measured values as given in ChEMBL document CHEMBL1141012, “Cytotoxic bromotyrosine derivatives from a two-sponge association of Jaspis sp. and Poecillastra sp” (Bioorg Med Chem Lett, 2008).
Converted amounts (≈) assume the structure as drawn.

What was measured:
Type in all cases: functional, cell-based
[1] = system: SK-MEL-2; assay: Cytotoxicity against human SK-MEL-2 cells
[2] = system: XF498; assay: Cytotoxicity against human XF498 cells
[3] = system: HCT-15; assay: Cytotoxicity against human HCT15 cells
[4] = system: A549; assay: Cytotoxicity against human A549 cells
[5] = system: SK-OV-3; assay: Cytotoxicity against human SKOV3 cells

| Compound | EC50 [1] [µg/mL] | EC50 [2] [µg/mL] | EC50 [3] [µg/mL] | EC50 [4] [µg/mL] | EC50 [5] [µg/mL] |
| --- | --- | --- | --- | --- | --- |
| COc1cccc2c1C(=O)c1c(O)c3c(c(O)c1C2=O)C[C@@](O)(C(=O)CO)C[C@@H]3O[C@H]1C[C@H](N)[C@H](O)[C@H](C)O1 [DOXORUBICIN] | 0.01 (≈ 0.0184 µM) | 0.03 (≈ 0.0552 µM) | 0.03 (≈ 0.0552 µM) | 0.01 (≈ 0.0184 µM) | 0.01 (≈ 0.0184 µM) |
| O=C1NCCSSCCNC(=O)/C(=N/O)Cc2ccc(c(Br)c2)Oc2cc(cc(Br)c2O)C/C(=N\O)C(=O)NCCSSCCNC(=O)/C(=N/O)Cc2cc(Br)c(O)c(c2)Oc2ccc(cc2Br)C/C1=N\O [CYCLOBISPSAMMAPLIN A] | 1.14 (≈ 0.861 µM) | 2.88 (≈ 2.17 µM) | 3.82 (≈ 2.88 µM) | 1.95 (≈ 1.47 µM) | 1.21 (≈ 0.913 µM) |
| O=C(NCCSSCCNC(=O)/C(Cc1ccc(O)c(Br)c1)=N/O)/C(Cc1ccc(OS(=O)(=O)[O-])c(Br)c1)=N\O.[Na+] [PSAMMAPLIN A SULFATE SODIUM SALT] | 1.13 | 0.18 | 1.25 | 0.18 | 0.16 |
| COC(=O)CCNC(=O)/C(Cc1ccc(O)c(Br)c1)=N/O [PSAMMAPLIN M] | > 30 | > 30 | > 30 | > 30 | > 30 |
| N#CSCCNC(=O)/C(Cc1ccc(O)c(Br)c1)=N/O [PSAMMAPLIN B] | 19.4 (≈ 54.2 µM) | 10.9 (≈ 30.5 µM) | > 30 | 12.8 (≈ 35.8 µM) | 9.27 (≈ 25.9 µM) |
| CS(=O)(=O)CCNC(=O)/C(Cc1ccc(O)c(Br)c1)=N/O [PSAMMAPLIN I] | 2.84 (≈ 7.49 µM) | 2.96 (≈ 7.81 µM) | 6.51 (≈ 17.2 µM) | 4.15 (≈ 10.9 µM) | 1.76 (≈ 4.64 µM) |
| CN(C)C(=N)N.CN(C)C(=N)N.O=C(NCCSSCCNC(=O)/C(Cc1ccc(OS(=O)(=O)O)c(Br)c1)=N/O)/C(Cc1ccc(OS(=O)(=O)O)c(Br)c1)=N/O [PSAMMAPLIN A SULFATE DIGUANIDIUM SALT] | 4.48 | 16.9 | 43.2 | 12.3 | 1.79 |
| NC(=O)C(=O)NCCSSCCNC(=O)/C(Cc1ccc(O)c(Br)c1)=N/O [PSAMMAPLIN E] | 0.21 (≈ 0.438 µM) | 1.63 (≈ 3.4 µM) | 1.92 (≈ 4.01 µM) | 1.47 (≈ 3.07 µM) | 0.19 (≈ 0.396 µM) |
